Here are results for one compound from patent US20030018044A1, “Treatment of ocular disease” (priority 2000, published 2003).

One data set concerns atopic dermatitis. Particulars: topical, cited from earlier work.
Another data set relates to human skin mast cells. Particulars: cited from earlier work.
The subject of another data set is eye. The experiment in a line: ocular toxicity after direct intraocular injection. It counts as in vivo, patient. The source says: The toxicity of tacrolimus, which had been reported with tacrolimus administered systemically, was thought to limit its intraocular use. The toxicity of tacrolimus administered intraocularly had not been evaluated. Ocular toxicity may manifest as a gross and/or histologic retinal and/orvitreous toxic reaction. Evidence of such a toxic reaction may include one or more of white vitreous bodies, white vitreous opacities, electroretinography abnormalities such as reduction in mean B-wave amplitude in both scotopic and photopic conditions, occlusion of the temporal retinal vessels, and fibrin deposits.
As used herein, a lack of substantial toxicity encompasses both the absence of any manifestations of toxicity, as well as manifestations of toxicity which one skilled in the art would consider not sufficiently detrimental to decrease or cease treatment.
The intravenous solution form of tacrolimus may be diluted to achieve the indicated concentration using 0.9% NaCl or 5% dextrose, or an organic solvent such as dimethylsulfoxide (DMSO) or alcohol, preferably a low molecular weight alcohol. Intraocular administration may be any of the routes and formulations previously described. For injection, either a solution, emulsion, suspension of a liquid, capsular formulation of microspheres or liposomes, etc. may be used.

The conditions of data set [1]: cited from earlier work.

On to `C=CC[C@@H]1/C=C(\C)C[C@H](C)C[C@H](OC)[C@H]2O[C@@](O)(C(=O)C(=O)N3CCCC[C@H]3C(=O)O[C@H](/C(C)=C/[C@@H]3CC[C@@H](O)[C@H](OC)C3)[C@H](C)[C@@H](O)CC1=O)[C@H](C)C[C@@H]2OC` [Tacrolimus], for which, in the data set with atopic dermatitis (concentrations up to 0.3%), the “adverse effects, treated versus control groups” value is listed as “no significant difference”. In the data set with atopic dermatitis (doses 0.03%-0.3%, after 2-3 weeks treatment), the “clinical improvement in atopic dermatitis” value is “significant clinical improvement”. In addition, the local tolerability entry with atopic dermatitis is “well tolerated locally and only occasionally causes mild irritation”. Besides, in the data set with human skin mast cells, the anti-IgE-triggered histamine release result was “inhibits” and the “prostaglandin D2 synthesis” value is reported as “inhibits”. In addition, the “dose of direct intraocular injection without substantial toxicity” value in the data set on eye is “up to 250 μg”. Further, in data set [1] (chloroform), the solubility in chloroform entry was “very soluble”. For the same compound, the solubility in ethanol result in data set [1] (ethanol) is “freely soluble”. The solubility in methanol result in data set [1] (methanol) is listed as “very soluble”. The solubility in water entry in data set [1] (water) is reported as “practically insoluble”.
